The text below walks through data of patent US8859565B2, “Compound for inhibiting type 5 phosphodiesterase and preparation method thereof” (priority 2010, dated 2014).

Structures can show the parent of a compound that is named as a salt.

For assay [1], the system named is rats having hypertension induced by monocrotaline. Particulars: cited from earlier work.
Assay [2] addresses T1, PDE5 (Homo sapiens, UniProt O76074). Kind of assay: Inhibiting effect to PDE5 degrading cGMP (cGMP enzyme immunoassay, EIA). It counts as biochemical. The following applies: 3200 fmol cGMP, PDE5 3u, 30° C., 20 min; PROBIT regression.
Assay [3] has as its target T1, PDE5. Kind of assay: Effect to PDE5 on cAMP (cAMP enzyme immunoassay, EIA). The following applies: 1600 fmol cAMP, PDE5 3u, 30° C., 20 min; 10^−4 to 10^−12 mol·L^−1; p>0.05, S curve cannot be fitted. It counts as biochemical.
A further assay deals with pulmonary hypertension. The following applies: animal model experiments; cited from earlier work.

Regarding `COc1ccc(CNc2nnc(N3CCC(O)CC3)c3ccc(C#N)cc23)cc1Cl.Cl` [E-4010], the Survival rate result in assay [1] is on record as “can increase the survival rate”.
One may read the IC50 as the concentration that inhibits the measured activity by half. Low readings indicate greater potency in that assay, high ones weaker potency in that assay. Turning to `CCCc1nn(C)c2c(=O)[nH]c(-c3cc(S(=O)(=O)N4C[C@@H](C)N(C)[C@@H](C)C4)ccc3OCC)nc12` [ZTH, 5-[2-ethoxyphenyl-5-(3,4,5-trimethylpiperazinyl)-sulfonyl]-1-methyl-3-propyl-1,6-dihydro-7H-pyrazolo[4,3-d]pyrimidine-7-ketone citrate], at PDE5 [2], half-maximal inhibition (IC50) was put at 2.12 nM. Besides, the “Effect to PDE5 on cAMP (OD value vs negative control)” value at PDE5 [3] is recorded as “no substantial difference in OD value”.
For `CCCOc1ccccc1-c1nc2nn[nH]c2c(=O)[nH]1` [zaprinast], the “Effect on pulmonary hypertension” value in the assay with pulmonary hypertension was “relatively strong effects to lower pulmonary hypertension”.
